Test: molar heat capacity at constant pressure; xn = mol fraction of the nth substance listed
Settings: 101.3 kPa, Liquid, Small sample (50 mg) DSC

CCC(C)(C)O [2-methylbutan-2-ol] + CCCCCCC
molar heat capacity at constant pressure [J/K/mol]
Settings	340.15 K	341.14 K	341.16 K	342.14 K	343.15 K	344.16 K	345.14 K
x1 = 0.0061	–	–	241.89	242.38	242.71	243.26	243.73
x1 = 0.0249	–	242.51	–	242.91	243.18	243.63	–
x1 = 0.0494	–	–	245.03	245.35	245.62	245.97	–
x1 = 0.1	–	–	252.79	253	253.03	253.15	–
x1 = 0.1547	–	–	260.64	260.67	260.73	260.83	–
x1 = 0.1999	–	–	266.06	266.17	266.34	266.48	–
x1 = 0.2993	–	–	274.84	275.1	275.23	275.42	–
x1 = 0.4051	–	–	281	281.32	281.6	281.89	–
x1 = 0.4986	–	–	284.87	285.37	285.7	286.07	–
x1 = 0.5981	287.28	–	287.66	288.22	288.61	289.06	–
x1 = 0.7015	289.07	–	289.5	290.08	290.51	291.07	–
x1 = 0.8023	289.24	–	289.74	290.39	290.89	291.49	–
x1 = 0.9139	288.58	289.17	–	289.86	290.38	291.02	–
x1 = 0.9609	287.73	–	288.3	288.96	289.53	290.18	–

Source: the NIST ThermoML archive (doi:10.1016/j.jct.2008.10.010)
